Measured values taken from US20230323475A1, “TEST METHOD, OF DIVIDING BLASTIC PLASMACYTOID DENDRITIC CELL NEOPLASM (BPDCN) INTO SUBTYPES” (JAPANESE FOUNDATION FOR CANCER RESEARCH, priority 2016, published 2023).

Key:
Format in all cases: cell-based
[1] = system: BPDCN cell line PMDC05 (MYC-BPDCN); experiment: Cell survival rate (Cell Titer-Glo cell growth assay), PMDC05; details: PMDC05, 48 hours, FIG. 6
Text: (§1) The cell lines used were 4 lines: BPDCN cell lines CAL-1 (MYC^+BPDCN; Non Patent Literature 11; obtained from Nagasaki University) and PMDC05 (MYC-BPDCN; Non Patent Literature 12; obtained from Niigata University), a positive control plasma cell neoplasm KMS12PE (obtained from JCRB Cell Bank) having the increased expression of MYC, and a negative control leukemia cell line K562 (obtained from JCRB Cell Bank) in which no MYC gene rearrangement was seen.
(§2) The CAL-1, PMDC05, or KMN12PE cells at 4000 cells/well or K562 at 1000 cells/well were inoculated to 96-well cell culture plates. […] The cell survival rates were measured using a cell growth assay kit using CTG reagent (Cell Titer-Glo, manufactured by Promega Corp.).
(§3) Aurora kinase inhibitors, albeit not agents directly suppressing MYC expression, were analyzed for their effects in the present invention. […] Each inhibitor was added from 1 nm to 10000 nM to the medium of the cells of each line. 48 hours later, the survival rates of these cells were analyzed (FIG. 10).
(§4) Each inhibitor was added in the concentration of 1 nM to 10000 nM to the 4 cell lines described above. The survival rates of these cells were analyzed 48 hours later (FIG. 11).

[2] = system: BPDCN cell line CAL-1 (MYC+BPDCN); experiment: Cell survival rate (Cell Titer-Glo cell growth assay), CAL-1; details: for survival rate of the CAL-1 cell line: CAL-1, 48 hours after addition of the BET bromodomain-selective inhibitor
Text: as §1, §2, §3, §4

[3] = system: MYC expression and PARP cleavage in CAL-1 cells; experiment: Western blot for MYC expression and PARP cleavage after JQ1, CAL-1; details: CAL-1, 400 nM JQ1 for 24 hours, compared with untreated cells, FIG. 9
Text: (§5) The primary antibody used was anti-cMyc rabbit monoclonal antibody (manufactured by Abcam plc) and an anti-GAPDH mouse monoclonal antibody (manufactured by Merck Millipore) as control. The secondary antibody used was a HRP-labeled anti-rabbit IgG antibody (donkey, manufactured by Amersham Biosciences Corp.). SuperSignal West Femto Maximum Sensitivity Substrate (manufactured by Pierce/Thermo Fisher Scientific Inc.) was used for detection.
(§6) As mentioned above, it was shown that the cell growth was suppressed by the addition of the BET bromodomain-selective inhibitors to a medium. Next, analysis was conducted on a mechanism underlying the suppression of the cell growth. JQ1 was added to CAL-1, PMDC05, KMS12PE, and K562 cells. Twenty-four hours later, the cells were collected and analyzed by Western blot for MYC expression and PARP cleavage serving as an index for cell death by apoptosis. An anti-PARP antibody was obtained from Cell Signaling Technology, Inc.

[4] = system: PARP cleavage in PMDC05 cells; experiment: Western blot for PARP cleavage after JQ1, PMDC05; details: PMDC05, JQ1 for 24 hours, FIG. 9
Text: as §5, §6

[5] = system: negative control leukemia cell line K562; experiment: Cell survival rate (Cell Titer-Glo cell growth assay), K562; details: 48 hours, JQ1 at 1000 nM or more, FIG. 6
Text: as §1, §2

[6] = system: PARP cleavage in K562 cells; experiment: Western blot for PARP cleavage after JQ1, K562; details: K562, JQ1 for 24 hours, FIG. 9
Text: as §5, §6

[7] = system: MYC expression in CAL-1 cells; experiment: MYC expression over time by immunostaining, CAL-1; details: FIG. 7
Experimental: The ratios of MYC-positive cells at the time of JQ1 addition (0 hours), 6 hours later, 24 hours later, and 48 hours later were approximately 95%, 60%, 15%, and 0%, respectively. Good correlation was observed between decrease in cell survival rate and decrease in MYC expression level.

[8] = system: MYC expression and PARP cleavage in KMS12PE cells; experiment: Western blot for MYC expression and PARP cleavage after JQ1, KMS12PE; details: 400 nM JQ1 for 24 hours, compared with untreated cells, FIG. 9
Text: as §5, §6

[9] = inhibitor added at a high concentration

Structure (SMILES): COc1cc2c(cc1-c1c(C)noc1C)ncc1[nH]c(=O)n([C@H](C)c3ccccn3)c12 [I-BET151]
- survival rate of PMDC05 [1, 9]: high survival rate
- survival rate of the CAL-1 cell line ([2]; FIG. 6): sharply decreased

Structure (SMILES): Cc1sc2c(c1C)C(c1ccc(Cl)cc1)=N[C@@H](CC(N)=O)c1nnc(C)n1-2 [CPI203]
- survival rate of PMDC05 [1, 9]: high survival rate
- survival rate of the CAL-1 cell line ([2]; FIG. 6): sharply decreased

Structure (SMILES): COc1ccccc1S(=O)(=O)Nc1ccc2c(c1)CN(C)C(=O)N2 [PFI-1]
- survival rate of PMDC05 [1, 9]: high survival rate
- survival rate of the CAL-1 cell line ([2]; FIG. 6): sharply decreased

Structure (SMILES): Cc1sc2c(c1C)C(c1ccc(Cl)cc1)=N[C@@H](CC(=O)Nc1ccc(O)cc1)c1nnc(C)n1-2 [OTX015]
- survival rate of PMDC05 [1, 9]: high survival rate
- survival rate of the CAL-1 cell line ([2]; FIG. 6): sharply decreased

Structure (SMILES): Cc1sc2c(c1C)C(c1ccc(Cl)cc1)=N[C@@H](CC(=O)OC(C)(C)C)c1nnc(C)n1-2 [JQ1]
- MYC expression (Western blot) [3]: markedly decreased
- expression of cleaved-PARP (index for cell death by apoptosis) [3]: increased
- increased PARP cleavage [4]: not observed
- survival rate of K562 [5]: high survival rate
- increased PARP cleavage [6]: not observed
- survival rate of PMDC05 ([1]; JQ1 added at a high concentration of 1000 nM or more): high survival rate
- ratio of MYC-positive cells ([7]; CAL-1, 400 nM JQ1, 6 hours later): ~60%
- ratio of MYC-positive cells ([7]; CAL-1, 400 nM JQ1, 24 hours later): ~15%
- ratio of MYC-positive cells ([7]; CAL-1, 400 nM JQ1, 48 hours later): ~0%
- ratio of MYC-positive cells ([7]; CAL-1, 400 nM JQ1, at the time of JQ1 addition (0 hours)): approximately 95%
- MYC expression (Western blot) [8]: markedly decreased
- expression of cleaved-PARP (index for cell death by apoptosis) [8]: increased
- concentration above which the survival rate of CAL-1 was rapidly decreased ([2]; CAL-1, 48 hours after addition, 6.25 nM to 6400 nM, FIG. 6): exceeded 150 nM

Structure (SMILES): COc1cc(Nc2ncc3c(n2)-c2ccc(Cl)cc2C(c2c(F)cccc2OC)=NC3)ccc1C(=O)O [alisertib]
- growth suppressive or inhibitory effect on CAL-1 compared with PMDC05 cells ([2]; 1 nM to 10000 nM, 48 hours, FIG. 10): higher growth suppressive or inhibitory effect
- growth suppression of BPDCN cell lines that exhibited MYC expression ([2]; summary statement in the description): effective
